Assay results published in US20090203877A1, “X-RAY-DENSE CONJUGATE” (Eberhard-Karls-Universitaet Tuebingen Universitaetsklinkum, priority 2006, published 2009).
“Also recorded” adds a separate entry of the source.

How the values were obtained:
[1] = system: human malignant U373 glioma cells; assay: Computer tomography, signal density of cell pellets; type: cell-based; settings: 260 μM, 20 min
Description: (§1) For CT and FACS human U373 glioma cells were grown under the same conditions in 75 cm^2 culture flasks (Corning Costar, Bodenheim, Germany) (70% confluency). Accutase™ (PAA laboratories, Pasching, Austria) was added to achieve detachment of the cells which were harvested and subsequently aliquoted into Eppendorf tubes (6×10^6 cells per tube). As in the investigations performed by fluorescence microscopy, the cells in the first tube served as a control (PBS only). The cells in the other tubes were incubated with 260 μM Ultravist, 260 μM TIBA in PBS and 26 μM, 260 μM and 2.6 mM conjugates 1-4 in PBS. After a 20 minute incubation period at 37° C. in an atmosphere of 5% CO2, the cells were washed three times in PBS and centrifuged at 800 rpm for 5 minutes.
The inner ear spiral CT protocol consisted of: tube voltage 120 KV, effective mAs 550, time of imaging TI: 1.5, SL 0.75/0.75/4.5, FOV: 50 0/52, kernel: U70, window: intervertebral disc.
3D-images were obtained using InSpace Software (Syngo CT 2006G) (Siemens AG, Erlangen, Germany).
(§2) After an incubation of 20 minutes at 37° C./5% CO2 the cells were washed three times with PBS buffer and centrifuged at 800 rpm (rounds per minute) for 5 minutes. The fluorescence was measured in Becton Dickinson FACSCalibur as described under 1.4. The computer tomography was performed as described under 1.5.1. The examinations were repeated two times. […]
An Orbita CT spiral was used: tube voltage 120 KV, effective mAs 550, time of imaging TI: 1.5, SL 0.75/0.75/4.5, FOV: 50 0/52, GT: 0.0, kernel: U70, window: intervertebral disc. 3D images were made with the InSpace Software (Syngo CT 2006G) (Siemens AG, Erlangen, Germany). […]

[2] = system: human vascular endothelial cells; settings: traditional contrast media; cited from earlier work
[3] = system: human malignant U373 glioma cells; assay: Uptake/staining of cells by FITC-labelled conjugates (fluorescence microscopy, CLSM, FACS, semi-thin sections); type: cell-based; settings: 260 μM
Description: Fluorescence was measured in a Becton Dickinson FACSCalibur. […] The investigations were performed in triplicate.
as §1
The FACS analysis was performed as described under 1.4.
(§3) The human malignant U373 and LN18 glioma cells were cultivated in 75 cm^2 culture flasks (Corning Costar) (70% confluency) under the conditions as described under 1.4, detached from the flask bottom with Accutase™ (PAA Laboratories) and in the following distributed on Eppendorf tubes (Eppendorf, Hamburg, Germany) (6×10^6 per tube). The cells in the first tube serve as a control (only PBS buffer only). The cells in the other ten tubes were each incubated with benzoic acid (BA), monoiodobenzoic acid (MIBA) or diiodobenzoic acid (DIBA) alone (260 μM), conjugate 3 alone (260 μM), conjugate 3 plus either BA, MIBA or DIBA (260 μM), respectively, and the conjugates 9, 10, and 11 alone. (260 μM).
After an incubation of 20 minutes at 37° C./5% CO2 the cells were washed three times with PBS buffer and centrifuged at 800 rpm (rounds per minute) for 5 minutes. The fluorescence was measured in Becton Dickinson FACSCalibur as described under 1.4. The computer tomography was performed as described under 1.5.1. The examinations were repeated two times.
(§4) For the CT and FACS examinations human LN-18 and U373 glioma cells were cultivated in 75 cm^2 culture flasks (Corning Costar) (70% confluency) (conditions as described under 1.4). Accutase™ (PAA Laboratories) was added to detach the cells from the bottom of the culture flasks. The cells were collected and then distributed on Eppendorf tubes (6×10^6 cells per tube). The cells in the first two tubes serve as a control (in each case only PBS, LN18 and U373 glioma cells, native). The cells in the other tubes (in each case LN18 and U373 glioma cells) were incubated with a 260 μM or 2.6 mM solution of the conjugate 12 for 20 minutes at 37° C. and 5% CO2 and in the following washed for three times with PBS buffer and centrifuged for 5 minutes with 800 rpm (rounds per minute). For a small amount of the cells it was tested by the MMT test (see 1.4) how many of the cells were still viable. The computer tomography of the cell centrifuges was performed with the Somatom Sensation 16 (Siemens).
(§5) The FACS analysis was performed as described under 1.4. The assay was repeated two times.
For the CT and FACS examinations human LN18 and U373 glioma cells were cultivated in 75 cm^2 culture flasks (70% confluency) (conditions as described under section 1). Accutase™ (PAA Laboratories) was added to detach the cell from the culture bottom. The cells were collected and then distributed on Eppendorf-tubes (6×10^6 cells per tube). […] The next three tubes were used for the coincubation of the cells either with trichlorobenzoic acid (TCBA), trifluorobenzoic acid (TFBA) or tribromophenyl Isocyanat (TBPI) and the NLS-FITC-conjugate 3 (260 μM). As control cells were used which were only either incubated with CIBA, FIBA, TBPI (in each case 260 μM in PBS) or with PBS-buffer (native control) alone. […] The computer tomography and FACS analysis of the cell centrifuges were performed as described in 1.5.1 or 1.4, respectively for three times. […]

[4] = system: human malignant LN18 glioma cells; assay: Uptake/staining of cells by FITC-labelled conjugates (CLSM, FACS, semi-thin sections); type: cell-based; settings: 260 μM; for nuclear staining of cells (CLSM), in words: 20 min; for heavily stained cells: FIGS. 8, 13-16; for staining of nucleoli in semi-thin sections (about 0.4 μm): after incubation
Description: as §3, §2, §5
For the CT and FACS examinations human LN18 and U373 glioma cells were cultivated in 75 cm^2 culture flasks (70% confluency) (conditions as described under section 1). Accutase™ (PAA Laboratories) was added to detach the cell from the culture bottom. The cells were collected and then distributed on Eppendorf-tubes (6×10^6 cells per tube). […] The next three tubes were used for the coincubation of the cells either with trichlorobenzoic acid (TCBA), trifluorobenzoic acid (TFBA) or tribromophenyl Isocyanat (TBPI) and the NLS-FITC-conjugate 3 (260 μM). As control cells were used which were only either incubated with CIBA, FIBA, TBPI (in each case 260 μM in PBS) or with PBS-buffer (native control) alone. […] The computer tomography and FACS analysis of the cell centrifuges were performed as described in 1.5.1 or 1.4, respectively for three times.
All measurements were performed on living cells.
All measurements were performed on living cells in triplicates.
A part of the cells which were stained for the FACS analysis, was fixed by paraformaldehyl with 2% Agar, dehydrogenized in ethanol, embedded in Lowicryl K4M (Polysciences, Eppelheim, Germany) and according to the information of the manufacturer UV-polymerised at room temperature. Semi-thin sections (about 0.4 μm) were cut and evaluated by means of fluorescence microscopy.

[5] = system: human malignant LN18 glioma cells; assay: Cell viability / cell death (annexin-V-Alexa 568 binding, propidium iodide, FACS scatter morphology); type: cell-based; settings: 260 μM, 20 min, substance alone
Description: All measurements were performed on living, non-fixed cells. […] All measurements were performed on living cells. […] All measurements were performed on living cells in triplicates. […] All measurements were performed on living cells.

[6] = system: human malignant LN18 glioma cells; assay: Computer tomography, signal density of cell centrifugates; type: cell-based; settings: 260 μM, 20 min
Description: as §4, with “After an incubation of 20 minutes at 37° C./5% CO2 the cells were washed three times with PBS buffer and centrifuged at 800 rpm (rounds per minute) for 5 minutes. The fluorescence was measured in Becton Dickinson FACSCalibur as described under 1.4. The computer tomography was performed as described under 1.5.1. The examinations were repeated two times. For the” for “For the”, “16 (Siemens). An Orbita CT spiral was used: tube voltage 120 KV, effective mAs 550, time of imaging TI: 1.5, SL 0.75/0.75/4.5, FOV: 50 0/52, GT: 0.0, kernel: U70, window: intervertebral disc. 3D images were made with the InSpace Software (Syngo CT 2006G) (Siemens AG, Erlangen, Germany). […] Accutase™ (PAA Laboratories) was added to detach the cell from the culture bottom. The cells were collected and then distributed on Eppendorf-tubes (6×10^6 cells per tube).” for “16 (Siemens).”

| Molecule | CT signal density of cell pellets [1] | concentration at which apoptosis is induced [2] [mg iodine per millilitre] | cells strongly stained by FITC, FACS histogram [3] | cells strongly stained by FITC, FACS histogram [4] | nuclear staining of cells (CLSM), in words ([4]; listed as K15) | heavily stained cells [4] [%] | staining of nucleoli in semi-thin sections (about 0.4 μm) [4] | cell death / vitality (annexin-V-Alexa 568, propidium iodide) [5] | cell death / vitality (annexin-V-Alexa 568, propidium iodide) ([5]; listed as K15) | CT signal density of cell centrifugates [6] | nuclear staining of cells (CLSM), in words [4] |
| --- | --- | --- | --- | --- | --- | --- | --- | --- | --- | --- | --- |
| COCC(=O)Nc1c(I)c(C(=O)NCC(O)CO)c(I)c(C(=O)N(C)CC(O)CO)c1I (stereo not shown) [Ultravist, Iopromid, reference compound] | only low signal density values; also recorded: did not result in any increase in signal density | 250 | – | – | – | – | – | – | – | – | – |
| CNC(=O)c1c(I)c(C(=O)NCC(=O)Nc2c(I)c(C(=O)O)c(I)c(C(=O)NCCO)c2I)c(I)c(N(C)C(C)=O)c1I [ioxaglate] | – | 250 | – | – | – | – | – | – | – | – | – |
| PKKKRKVK(FITC)GGK(TBPI) (PKKKRKVKGGK; FITC, GGK linker, TBPI) [conjugate 15, FITC-labelled tribromophenyl isocyanate-NLS-conjugate] | did not result in an increase of the signal density | – | clear increase of the cells which are strongly stained by FITC | clear increase of the cells which are strongly stained by FITC | strong staining of the nucleus in almost all cells; also recorded: nuclei of the LN18 glioma cells accumulate | 78 | strongly stained; also recorded: accumulate in the nucleoli | signs of cell death | Alexa-annexin binds to the surface of the cells | did not result in an increase of the signal density | – |
| PKKKRKVK(FITC)GGK(TCBA) (PKKKRKVKGGK; FITC, GGK linker, TCBA) [conjugate 14, FITC-labelled NLS with trichlorobenzoic acid] | did not result in an increase of the signal density | – | shift of the histogram peak to the right | shift of the histogram peak to the right | – | 78 | accumulate in the nucleoli | dead and signs of cell death | – | did not result in an increase of the signal density | almost all nuclei are stained |
| PKKKRKVK(FITC)GGK(TFBA) (PKKKRKVKGGK; FITC, GGK linker, TFBA) [conjugate 13, FITC-labelled NLS with trifluorobenzoic acid] | did not result in an increase of the signal density | – | shift of the histogram peak to the right | shift of the histogram peak to the right | – | 78 | accumulate in the nucleoli | no longer vital; also recorded: signs of cell death | – | did not result in an increase of the signal density | stains a large number of cells in the nucleus |
